Values of other authors in US20040109886A1 (priority 2002, published 2004).

Experiments:
[1] = base

For `O=C(CCCN1CC=C(n2c(=O)[nH]c3ccccc32)CC1)c1ccc(F)cc1` [droperidol], the “solubility in acidic water” value (acidic water) is given as “soluble”, the solubility in alcohol (alcohol) is given as “high solubility” and the pKa [1] is given as 7.64.
